The source of these data is publication PMC5578999, “Novel quinolone chalcones targeting colchicine-binding pocket kill multidrug-resistant cancer cells by inhibiting tubulin activity and MRP1 function” (Scientific Reports, 2017).

Molecules are shown by their SMILES.

The subject of one series is KB-C-1. Put plainly: SRB cell viability, parental cells. Format: cell-based. The following applies: Homo sapiens, KBC-1; KB-C-1; Table S1. On the procedure: (§1) human epidermoid carcinoma cell line and KB-C2, an isogenic MDR1- overexpressing drug-resistant cell line, were kindl y provided b y Dr. Amit K Tiwari, the Universit y of Toledo, OH. […]
(§2) Cell line authentication was carried out by Genetica DNA
(§3) Cell viability, com binational i ndex and cell synchronization
(§4) Cell viability and proliferation were ex amined using a s ulforhodamine B (SRB) assa y as […]
(§5) IC 50 values were calculat ed from si gmoidal dose-response cu rves gen erat ed b y at least two indepen dent ex periments , with each quadruplicate samples, using GraphPad Prism v.5.04 software (GraphPad Software, Inc, La J olla, CA). […]
(§6) (sham) or presence of compound(s). […]

The test system of another series is SW-1271. Description: SRB cell viability. It is filed as cell-based. The note with it: SW1271, Table S1. On the procedure:
as §2, §3, §4, §5, §6

Another series deals with H69AR. Put plainly: SRB cell viability, multidrug-resistant cells. It is filed as cell-based. The following applies: Table S1; for Resistance (fold): H69AR vs SW-1271; for IC50: Homo sapiens, H69AR. On the procedure:
as §2, §3, §4, §5, §6

In series [1] the test system is KB-C-2. Description: SRB cell viability, MDR1-overexpressing cells. Format: cell-based. The following applies: Homo sapiens, KB-C2; KB-C-2; Table S1. The protocol: as §1, §2, §3, §4, §5, §6
Series [2] deals with KB-C-2. Description: SRB cell viability, MDR1-overexpressing cells. Format: cell-based, human. The note with it: for Resistance (fold): KB-C-2 vs KB-C-1, Table S1.
The subject of the next series is MDA-MB-231. Description: SRB cell viability and combinational index. The note with it: Homo sapiens; MDA-MB-231 cells. Format: cell-based. The protocol: (§7) Dr. Susan Cole (Queen’s Universit y, Kingston, Ontario, Canada). The pacl itaxel-resistant MDA-MB-231TaxR cell line was generated in house b y culturing MDA-MB-231 cells (purchased from ATCC and authen ticated ) in the gradual l y incr easi ng con centr ations of pacl itax el until the concentration reached to 100 nM. Cell line authentication was carried out by Genetica DNA Laboratories (Burlington, NC) using a short tandem repeat (STR) profiling method (March 2015; […]
as §3
(§8) Cell viability and proliferation were ex amined using a s ulforhodamine B (SRB) assa y as described previousl y (Hu et al., 2008). IC 50 values were calculat ed from si gmoidal dose-response cu rves gen erat ed b y at least two indepen dent ex periments , with each quadruplicate samples, using GraphPad Prism v.5.04 software (GraphPad Software, Inc, La J olla, CA). […]
737/ABT-199 w ere us ed at or below IC 50 . The combinational index (CI) w as calculat ed as previousl y described (Chou, 2006). […]
(§9) (Romero and Lee, 2008), and the cells were r eleas ed in to complete medium in the absence (sham) or presence of compound(s). […]

In series [3] the target is T1, MRP1 (Homo sapiens, UniProt P33527).
T1 construct: expressed in transfected cells; host or cells: HEK293-MRP1 (gift of Dr. Susan Cole)
Description: Calcein-AM retention assay, HEK293-MRP1 cells. Format: cell-based. The following applies: 22 µmol/L, DMSO control 52%.

Series [4] has as its target T1, MRP1. Put plainly: Rh123 dye efflux assay, HEK293-MRP1 cells. Format: cell-based. The following applies: 22 µmol/L of drug, DMSO control 39.6%. The protocol: Rhodamine123 (Rh123) drug efflux was carried out using a Multidrug-Resistance Direct Dye Efflux Activity Kit (Millipore, Darmstadt, Germany), with some modifications. […] Reading was carried out with a Beckman Coulter FC500 flow cytometer.

In the next series the test system is HEK293-MRP1. Description: SRB cell viability, MRP1-overexpressing cells. It is filed as cell-based, human. The note with it: HEK293-MRP1 vs HEK293.
From the text: Parental HEK293 and M RP1- overexpressing HEK293- MRP1 isogenic cel ls were kind gifts of Dr. Susan Cole (Queen’s Universit y, Kingston, Ontario, Canada). […]
as §3, §4, §5, §6

Series [5] has as its system MDA-MB-231 triple-negative metastatic breast cancer cells. Put plainly: Antitumor activity in engrafted athymic mice. It is filed as in vivo, ATH490 athymic mice. On the procedure:
The animals were then immediately euthanized by carbon dioxide. […]
Supplementary Table S2. A typical treatment protocol of engrafted mice with CTR alone or in
combination with paclitaxel.
Treatment Dos a ge Frequ enc y Route Notes
Sham control Highest volume E v e r y 3-4 d a ys Intraperitoneal (I.P.) Vehicle onl y
Taxa 10 mg/kgb Once/week Intravenous ( I.V.)
CTR-17 (30) 30 mg/kg E v e r y 3-4 d a ys I. P .
CTR-20 (30) 30 mg/kg E v e r y 3-4 d a ys I. P .
Supplementary Table S 3: Antitumor activity of CTR -17 and CTR -20, alone or in combination
a Tax: paclitaxel. b mg per kg of bod y wei ght. c unit is mm 3. […]

The test system of another series is MDA-MB-231TaxR. Description: SRB cell viability, paclitaxel-resistant cells. Format: cell-based. The note with it: MDA-MB-231TaxR vs MDA-MB-231. On the procedure: as §7, §3, §8, §9
For series [6] the following is noted: mouse, in vivo.
Description: Athymic mice engrafted with tumor cells were used to determine antitumor activity. […] When tumor size reached 5–6 mm in diameter (n = 4–5 per group), mice were randomly assigned into several groups and vehicle-treated or treated with drug(s). […] Animals were monitored for food and water consumption every day, and their body weights and tumor volumes were measured twice per week. Tumor volumes were measured with a digital caliper and were determined by the following formula: ½ length × width^2. Blood samples were collected via cardiac puncture and processed for ALT and AST measurements. The animals were then immediately euthanized by carbon dioxide. Tumors and vital organs (spleen, kidney, liver and lung) were harvested and fixed in 10% buffered formalin at 4 °C overnight before being processed for a paraffin embedding. The paraffin-embedded blocks were then sectioned to 4–5 µm thick. Each section was stained with haematoxylin and eosin (H&E).

T1 sequence (P33527 whole entry): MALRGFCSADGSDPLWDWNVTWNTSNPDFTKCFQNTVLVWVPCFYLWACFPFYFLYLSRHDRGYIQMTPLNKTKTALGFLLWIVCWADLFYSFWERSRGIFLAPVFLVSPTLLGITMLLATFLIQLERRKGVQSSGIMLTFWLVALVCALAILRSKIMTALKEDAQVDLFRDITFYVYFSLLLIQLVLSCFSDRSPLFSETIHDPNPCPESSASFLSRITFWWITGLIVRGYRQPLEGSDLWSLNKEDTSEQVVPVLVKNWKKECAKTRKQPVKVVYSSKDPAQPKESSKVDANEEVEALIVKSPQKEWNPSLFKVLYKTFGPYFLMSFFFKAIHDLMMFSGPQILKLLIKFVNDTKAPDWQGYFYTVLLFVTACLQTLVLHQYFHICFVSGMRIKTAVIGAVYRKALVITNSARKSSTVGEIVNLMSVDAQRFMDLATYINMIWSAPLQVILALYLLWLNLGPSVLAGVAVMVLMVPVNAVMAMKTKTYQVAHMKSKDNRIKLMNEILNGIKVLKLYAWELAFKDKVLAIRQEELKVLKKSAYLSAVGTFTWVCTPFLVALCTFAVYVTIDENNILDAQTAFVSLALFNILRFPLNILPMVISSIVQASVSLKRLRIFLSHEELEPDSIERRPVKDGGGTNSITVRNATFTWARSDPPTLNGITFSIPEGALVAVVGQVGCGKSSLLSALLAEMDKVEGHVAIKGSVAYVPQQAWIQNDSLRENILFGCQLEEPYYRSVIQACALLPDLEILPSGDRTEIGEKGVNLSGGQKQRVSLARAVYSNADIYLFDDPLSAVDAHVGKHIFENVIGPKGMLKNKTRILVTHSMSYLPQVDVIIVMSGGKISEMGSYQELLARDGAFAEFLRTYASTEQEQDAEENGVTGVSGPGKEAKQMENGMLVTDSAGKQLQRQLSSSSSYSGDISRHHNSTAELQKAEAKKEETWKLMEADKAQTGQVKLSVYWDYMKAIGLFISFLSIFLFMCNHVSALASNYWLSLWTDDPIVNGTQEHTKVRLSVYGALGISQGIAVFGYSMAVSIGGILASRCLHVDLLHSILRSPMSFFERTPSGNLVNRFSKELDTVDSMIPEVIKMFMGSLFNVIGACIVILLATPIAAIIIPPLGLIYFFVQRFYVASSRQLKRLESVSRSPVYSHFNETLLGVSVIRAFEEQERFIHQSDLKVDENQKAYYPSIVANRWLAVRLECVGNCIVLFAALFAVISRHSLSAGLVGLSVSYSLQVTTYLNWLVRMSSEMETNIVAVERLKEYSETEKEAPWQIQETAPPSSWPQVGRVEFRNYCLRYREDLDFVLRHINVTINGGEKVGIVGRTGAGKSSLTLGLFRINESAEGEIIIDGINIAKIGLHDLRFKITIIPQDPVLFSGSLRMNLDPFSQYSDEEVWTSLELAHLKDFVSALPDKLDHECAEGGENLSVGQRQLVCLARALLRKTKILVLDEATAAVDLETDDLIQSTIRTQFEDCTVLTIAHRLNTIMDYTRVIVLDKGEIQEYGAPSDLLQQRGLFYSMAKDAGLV

Usually IC50 stands for the midpoint of a concentration-inhibition curve. For the molecule `CC[C@]1(O)C[C@@H]2CN(CCc3c([nH]c4ccccc34)[C@@](C(=O)OC)(c3cc4c(cc3OC)N(C)[C@H]3[C@@](O)(C(=O)OC)[C@H](OC(C)=O)[C@]5(CC)C=CCN6CC[C@]43[C@@H]65)C2)C1` [vinblastine], the half-maximal inhibitory concentration (IC50) in the series with KB-C-1 came to 0.61 ± 0.09 nM; in the series with SW-1271, 1.75 ± 0.21 nM; in the series with H69AR, 10.2 ± 1.97 nM; in the series with KB-C-2 [1], 9.27 ± 3.22 nM. In addition, the “Resistance (fold)” value is listed as 5.82 fold with H69AR and 15.20 fold in the series on KB-C-2 [2]. For the same molecule, the “resistance ratio of KB-C-2 vs KB-C-1 cells” value with KB-C-2 [2] amounted to 15.20 folds.
As for `CN(C)CC[C@H](CSc1ccccc1)Nc1ccc(S(=O)(=O)NC(=O)c2ccc(N3CCN(Cc4ccccc4-c4ccc(Cl)cc4)CC3)cc2)cc1[N+](=O)[O-]` [ABT-737], the IC50 in the series with MDA-MB-231 is 28500 ± 3990 nM.
Take `COc1cc2c(c(OC)c1OC)-c1ccc(OC)c(=O)cc1[C@@H](NC(C)=O)CC2` [colchicine]: the “calcein-AM retained in the cells” value on MRP1 [3] is 59%. The molecule further had a Rh123 retention on MRP1 [4] of 77.6%. The “resistance of MRP1-overexpressing HEK293 cells” value in the series with HEK293-MRP1 was “approximately 3.5 fold”.
As for `CC(=O)O[C@H]1C(=O)[C@@]2(C)[C@H]([C@H](OC(=O)c3ccccc3)[C@]3(O)C[C@H](OC(=O)[C@H](O)[C@@H](NC(=O)c4ccccc4)c4ccccc4)C(C)=C1C3(C)C)[C@]1(OC(C)=O)CO[C@@H]1C[C@@H]2O` [paclitaxel, reference compound], in series [5] (Tax 10 mg/kg i.v. once/week, CTR 30 mg/kg i.p. every 3-4 days, combinations Tax 5 + CTR 15 mg/kg once/week), the “tumor volume Day 0” value is listed as 91.84 mm3. In series [5] (Tax 10 mg/kg i.v. once/week, CTR 30 mg/kg i.p. every 3-4 days, combinations Tax 5 + CTR 15 mg/kg once/week, sham 105.03), the “tumor volume Day 6” value is 90.11 mm3. Moreover, the “tumor volume Day 14” value in [5] (same doses, sham 136.66) came to 94.66 mm3. For the same molecule, the “tumor volume Day 17” value in series [5] (same doses, sham 162.62) is 92.33 mm3. For the same molecule, the “tumor volume Day 20” value in series [5] (same doses, sham 192.69) turned out to be 81.66 mm3. For the same molecule, the “tumor volume Day 24” value in series [5] (same doses, sham 268.08) turned out to be 95.61 mm3. Moreover, the “tumor volume Day 27” value in series [5] (same doses, sham 426.87) was found to be 139.41 mm3. The “tumor volume Day 30” value in series [5] (same doses, sham 557.66) is reported as 170.36 mm3. Also, the “resistance of MDA-MB-231TaxR” value in the series with MDA-MB-231TaxR came out at 114 times. In [6], the “mice showing presence of hyaline in kidney” value is given as “one in four mice”. The IC50 with KB-C-1 stood at 2.01 ± 0.17 nM; in the series with SW-1271, 4.51 ± 0.71 nM; with H69AR it was 11 ± 2.6 nM; with KB-C-2 [1] it was 23.08 ± 0.21 nM. The entries for the “Resistance (fold)” value in the series with H69AR and in the series on KB-C-2 [2] were 2.44 fold and 11.48 fold, respectively. Further, the “resistance ratio of KB-C-2 vs KB-C-1 cells” value in the series with KB-C-2 [2] is on record as 11.48 folds.
On to `CC1(C)CCC(CN2CCN(c3ccc(C(=O)NS(=O)(=O)c4ccc(NCC5CCOCC5)c([N+](=O)[O-])c4)c(Oc4cnc5[nH]ccc5c4)c3)CC2)=C(c2ccc(Cl)cc2)C1` [ABT-199], for which, in the series with MDA-MB-231, the IC50 worked out at 11600 ± 1130 nM.
